Assays:
lymphotoxin (TNF-β) = molecular target: T1, lymphotoxin (TNF-β) (Homo sapiens, UniProt P01374); conditions: cited from earlier work
T1 sequence (P01374 35-205): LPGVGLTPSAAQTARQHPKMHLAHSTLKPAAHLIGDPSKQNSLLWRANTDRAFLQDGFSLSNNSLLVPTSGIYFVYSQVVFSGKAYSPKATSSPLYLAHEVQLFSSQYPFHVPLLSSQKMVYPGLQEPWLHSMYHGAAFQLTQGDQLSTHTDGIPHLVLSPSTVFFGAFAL

patients with CD = conditions: cited from earlier work
[1] = multiple-dose pharmacokinetics of vedolizumab, IV infusion, patients with UC; type: in vivo, human; conditions: dose range 2 to 10 mg/kg
Procedure: (§1) In previous studies, single-dose pharmacokinetics, pharmacodynamics (α4β7 receptor saturation), safety, and tolerability of vedolizumab were investigated over a dose range of 0.2 to 10 mg/kg in healthy volunteers (intravenous [IV] infusion) (unpublished data). After reaching peak concentrations, vedolizumab serum concentrations fell in a generally biexponential fashion until concentrations reached approximately 1 to 10 ng/mL. Thereafter, concentrations appeared to fall in a nonlinear fashion. The multiple-dose pharmacokinetics and pharmacodynamics of vedolizumab have been investigated following IV infusions of 0.5 and 2 mg/kg in patients with CD and infusion of 2, 6, and 10 mg/kg in patients with UC.

α4β7 receptor = molecular target: T2, α4β7 receptor (Homo sapiens, UniProt P13612+P26010); assay: pharmacodynamics (α4β7 receptor saturation) after multiple-dose administration; type: in vivo; conditions: following the initial dose
T2 construct: endogenous in cells; host or cells: lymphocytes of patients with CD or UC (in vivo)
Procedure: as §1

With Adalimumab as the substance, how does the “binding or inactivation of lymphotoxin (TNF-β)” value (lymphotoxin (TNF-β)) read?
Its value is “does not bind or inactivate”.

And the maintaining clinical remission (patients with CD; 40 mg weekly or every other week, patients with CD who responded to adalimumab induction therapy)?
Its maintaining clinical remission is “effective”.

And the corticosteroid-sparing effects (patients with CD; patients with CD)?
The corticosteroid-sparing effects was “corticosteroid-sparing effects”.

For “vedolizumab: humanized antibody (Ig) G1 mAb directed against the human lymphocyte integrin α4β7; CAS 943609-66-3”, which pharmacokinetics dose linearity [1] is on record?
The pharmacokinetics dose linearity was “generally linear”.

What about the α4β7 receptor saturation (α4β7 receptor) of the same substance?
The α4β7 receptor saturation was “rapid and near complete”.

— US10918716B2, “Triple combination therapy for treating Crohn's disease” (Millennium Pharmaceuticals, Inc., priority 2016, dated 2021)
